In patent US20170362243A1, “BIARYLETHER IMIDAZOPYRAZINE BTK INHIBITORS” (MERCK SHARP & DOHME CORP., priority 2014, published 2017):
pIC50: −log10 of the molar value.

What follows are molecules tested against T1, BTK enzyme (recombinant full-length BTK, hBTK) (Homo sapiens, UniProt Q06187) (assay: Btk enzyme activity assay, LANCE TR-FRET). Details: 50 pM hBTK, 2 μM biotin-A5-peptide, 25 μM ATP, 60 minute compound & enzyme incubation, read-out: BTK binding IC50.
T1 construct: recombinant protein from baculovirus-transfected Sf9 cells: full-length BTK, 6HIS-tag cleaved; 6HIS (cleaved yes); made in house; host or cells: baculovirus-transfected Sf9 cells
Format: biochemical
Description: BTK enzymatic activity was determined with the LANCE (Lanthanide Chelate Excite) TR-FRET (Time-resolved fluorescence resonance energy transfer) assay. In this assay, the potency (IC50) of each compound was determined from an eleven point (1:3 serial dilution; final compound concentration range in assay from 1 μM to 0.017 nM) titration curve using the following outlined procedure. To each well of a black non-binding surface Corning 384-well microplate (Corning Catalog #3820), 5 nL of compound (2000 fold dilution in final assay volume of 10 μL) was dispensed, followed by the addition of 7.5 μL of 1× kinase buffer (50 mM Hepes 7.5, 10 mM MgCl2, 0.01% Brij-35, 1 mM EGTA, 0.05% BSA & 1 mM DTT) containing 5.09 pg/μL (66.67 pM) of BTK enzyme (recombinant protein from baculovirus-transfected Sf9 cells: full-length BTK, 6HIS-tag cleaved). Following a 60 minute compound & enzyme incubation, each reaction was initiated by the addition of 2.5 μL 1× kinase buffer containing 8 μM biotinylated “A5” peptide (Biotin-EQEDEPEGDYFEWLE-NH2) (SEQ.ID.NO.: 1), and 100 μM ATP. The final reaction in each well of 10 μL consists of 50 pM hBTK, 2 μM biotin-A5-peptide, and 25 μM ATP. Phosphorylation reactions were allowed to proceed for 120 minutes. Reactions were immediately quenched by the addition of 20 uL of 1× quench buffer (15 mM EDTA, 25 mM Hepes 7.3, and 0.1% Triton X-100) containing detection reagents (0.626 nM of LANCE-Eu-W1024-anti-phosphoTyrosine antibody, PerkinElmer and 86.8 nM of Streptavidin-conjugated Dylight 650, Dyomics/ThermoFisher Scientific). After 60 minutes incubation with detection reagents, reaction plates were read on a PerkinElmer EnVision plate reader using standard TR-FRET protocol. Briefly, excitation of donor molecules (Eu-chelate:anti-phospho-antibody) with a laser light source at 337 nm produces energy that can be transferred to Dylight-650 acceptor molecules if this donor:acceptor pair is within close proximity. Fluorescence intensity at both 665 nm (acceptor) and 615 nm (donor) are measured and a TR-FRET ratio calculated for each well (acceptor intensity/donor intensity). IC50 values were determined by 4 parameter robust fit of TR-FRET ratio values vs. (Log10) compound concentrations.
The following Table 3 provides specific IC50 values for all the examples. The IC50 values set forth below were determined according to Assay method described above.

T1 sequence (Q06187 whole entry): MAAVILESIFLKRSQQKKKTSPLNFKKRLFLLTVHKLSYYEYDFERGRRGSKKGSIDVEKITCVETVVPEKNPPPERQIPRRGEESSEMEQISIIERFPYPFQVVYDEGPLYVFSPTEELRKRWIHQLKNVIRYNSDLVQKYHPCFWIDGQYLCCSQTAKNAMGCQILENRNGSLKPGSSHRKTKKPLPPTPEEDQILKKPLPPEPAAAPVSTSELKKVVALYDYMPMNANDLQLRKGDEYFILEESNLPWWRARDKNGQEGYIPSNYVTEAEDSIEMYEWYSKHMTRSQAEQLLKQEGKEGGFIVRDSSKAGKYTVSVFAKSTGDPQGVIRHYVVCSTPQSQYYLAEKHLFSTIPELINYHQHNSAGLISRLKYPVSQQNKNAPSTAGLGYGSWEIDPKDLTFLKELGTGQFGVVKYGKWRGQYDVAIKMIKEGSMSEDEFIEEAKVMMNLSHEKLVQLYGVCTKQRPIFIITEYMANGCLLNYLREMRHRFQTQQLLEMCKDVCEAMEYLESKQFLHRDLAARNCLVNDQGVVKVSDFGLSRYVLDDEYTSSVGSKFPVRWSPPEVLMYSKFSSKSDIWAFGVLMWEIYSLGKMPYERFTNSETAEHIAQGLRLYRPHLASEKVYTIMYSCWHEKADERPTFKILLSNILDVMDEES

| Compound | pIC50 |
| --- | --- |
| CC1(C)[C@@H](C(=O)O)C[C@H]1c1nc(-c2ccc(Oc3ccccc3)cc2)c2c(N)nccn12 [Example 18, (1 S,3R)-3-(8-amino-1-(4-phenoxyphenyl)imidazo[1,5-a]pyrazin-3-1)-2,2-dimethylcyclobutanecarboxylic acid] | 8.46 |
| CC1(C(=O)O)CCC(C)(c2nc(-c3ccc(Oc4ccccc4)cc3)c3c(N)nccn23)C1 (single isomer, unassigned) [Example 29, 3-[8-amino-1-(4-phenoxyphenyl)imidazo[1,5-a]pyrazin-3-yl]-1,3-dimethylcyclo-pentanecarboxylic acid (E2)] | 8.89 |
| Nc1nccn2c(C34C=CC(C(=O)O)(CC3)CC4)nc(-c3ccc(Oc4ccccc4)cc3)c12 [Example 22, 4-[8-amino-1-(4-phenoxyphenyl)imidazo[1,5-a]pyrazin-3-yl]bicyclo[2.2.2]oct-2-ene-1-carboxylic acid] | 9.59 |
| CC(C)[C@]1(C(=O)O)CC[C@@H](c2nc(-c3ccc(Oc4cccc(F)c4)cc3)c3c(N)nccn23)C1 [Example 2, (1S,3R)-3-{8-amino-1-[4-(3-fluorophenoxy)phenyl]imidazo[1,5-a]pyrazin-3-yl}-1-(1-methylethyl)cyclo-pentanecarboxylic acid] | 8.70 |
| Nc1nccn2c(C34CCCC(C(=O)O)(CC3)CC4)nc(-c3ccc(Oc4ccccc4)cc3)c12 [Example 21, 5-[8-amino-1-(4-phenoxyphenyl)imidazo[1,5-a]pyrazin-3-yl]bicyclo[3.2.2] nonane-1-carboxylic acid] | 9.85 |
| Nc1nccn2c1c(-c1ccc(Oc3cccc(F)c3)cc1)nc2[C@H]1CC[C@H](C(=O)O)CC1 [Example 12, trans-4-{8-amino-1-[4-(3-fluorophenoxy)phenyl]imidazo[1,5-a]pyrazin-3-yl}cyclohexanecarboxylic acid] | 9.00 |
